pIC50: −log10 of the molar value.
Key:
r-NAAA = biological target: T1, r-NAAA (Rattus norvegicus, UniProt Q5KTC7); assay: UPLC/MS r-NAAA assay; format: biochemical; conditions: rat lung lysosomal NAAA preparation
T1 construct: Lysosomal NAAA protein preparation was obtained by homogenizing male Sprague-Dawley rat lungs; tissue Charles River; host or cells: male Sprague-Dawley rat lung, soluble lysosomal fraction
T1 sequence (Q5KTC7 34-362): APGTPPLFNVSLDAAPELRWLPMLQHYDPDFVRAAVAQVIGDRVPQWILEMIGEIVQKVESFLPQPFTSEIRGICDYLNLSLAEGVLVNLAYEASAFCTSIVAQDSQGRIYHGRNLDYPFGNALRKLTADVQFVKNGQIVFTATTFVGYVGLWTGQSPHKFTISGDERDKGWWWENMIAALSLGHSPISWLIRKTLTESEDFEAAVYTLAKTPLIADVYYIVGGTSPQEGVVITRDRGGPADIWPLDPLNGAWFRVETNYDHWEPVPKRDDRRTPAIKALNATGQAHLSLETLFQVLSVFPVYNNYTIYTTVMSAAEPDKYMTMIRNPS
Description: Lysosomal NAAA protein preparation was obtained by homogenizing male Sprague-Dawley rat lungs (Charles River) in 20 mM Tris-HCl buffer pH 7.4 containing 0.32M sucrose. Samples were centrifuged at 800×g for 15 min at 4° C. Supernatants were centrifuged at 12,000×g for 30 min at 4° C. Pellets were then resuspended in PBS pH 7.4 and subjected to a freeze/thaw cycle at −80° C. The suspension was finally centrifuged at 105,000 g for 1 h at 4° C. The supernatant was used in enzymatic assays.
NAAA preparations were pre-incubated with various concentrations of test compounds or vehicle control in 100 mM NaH2PO4/Citrate buffer, 1% Triton-X, 3 mM DTT (pH 4.5) for 30 min at 37° C. Samples were incubated with heptadecenoylethanolamide (50 μM, Avanti Polar Lipids) at 37° C. for 30 min. The reaction was terminated by addition of cold methanol containing heptadecanoic acid (NuCheck Prep) as internal standard. Samples were analyzed by UPLC/MS (Acquity, Waters). Heptadecenoic and heptadecanoic acids were eluted on an Acquity UPLC BEH C18 column (50 mm length, 2.1 mm i.d., 1.7 μm pore size, Waters) isocratically at 0.5 mL/min for 1.5 min with a solvent mixture of 95% methanol and 5% H2O, both containing 0.25% Acetic Acid and 5.0 mM ammonium acetate. The column temperature was 40° C. Electrospray ionization was in the negative mode, capillary voltage was 0.5 kV, cone voltage was […], desolvation temperature was 500° C. N2 was used as drying gas at a flow rate of 1000 L/hour and a temperature of 500° C. The [M−H]^− ion was monitored in the selected-ion monitoring mode (m/z values: heptadecenoic acid 267.37, heptadecanoic acid 269.37). Calibration curves were generated using commercial heptadecenoic acid (NuCheck Prep) Inhibition of NAAA activity was calculated as reduction of heptadecenoic acid in the samples compared to vehicle controls. IC50 values were calculated by non-linear regression analysis of log [concentration]/inhibition curves using GraphPad Prism 5 (GraphPad Software Inc., CA—USA) applying a standard slope curve fitting.

[1] = test system: carrageenan-induced paw edema and heat hyperalgesia; assay: Carrageenan-induced inflammation (paw edema, heat hyperalgesia); format: in vivo; conditions: mice, intraperitoneal, 10-100 mg/kg

| pIC50 (r-NAAA) | Compound | paw edema ([1]; FIG. 1 A) | heat hyperalgesia ([1]; FIG. 1 B) |
| --- | --- | --- | --- |
| 5.68 | O=C(CCCCCCc1ccccc1)N[C@H]1CNC1=O [Example 7, 7-Phenyl-N-[(3S)-2-Oxoazetidin-3-yl]-heptanamide] | – | – |
| 6.62 | CCCCCCCCC(=O)N[C@H]1CNC1=O [Example 3, N-[(3S)-2-Oxoazetidin-3-yl]-nonanamide] | reduced | reduced |

Source: patent US9908848B2, “Amide derivatives of lactam based N-acylethanolamine acid amidase (NAAA) inhibitors” (The Regents of the University of California, priority 2013, dated 2018)
